# Patent US20260092071A1, “COMPOUNDS AND COMPOSITIONS AS SMARCA2/4 DEGRADERS AND USES THEREOF” (REGENTS OF THE UNIVERSITY OF MICHIGAN, priority 2022, published 2026)
# Like-named read-outs stand apart in the source and are kept apart here.
# Tests used:
# SMARCA4 = SMARCA4 (Homo sapiens, UniProt P51532); test: HiBiT assay for protein degradation, Hela SMARCA4-HiBiT cells (A series); assay type: cell-based; parameters: fuse HiBiT to the carboxy terminus of SMARCA2 (Promega CS302365) or SMARCA4 (Promega CS3023225); host or cells: HeLa (CRISPR/Cas9 HiBiT knock-in); conditions: for DC50: read-out: SMARC A4 Hela HiBit DC50
# Sequence of SMARCA4 (P51532 whole entry, the tested form may be a part): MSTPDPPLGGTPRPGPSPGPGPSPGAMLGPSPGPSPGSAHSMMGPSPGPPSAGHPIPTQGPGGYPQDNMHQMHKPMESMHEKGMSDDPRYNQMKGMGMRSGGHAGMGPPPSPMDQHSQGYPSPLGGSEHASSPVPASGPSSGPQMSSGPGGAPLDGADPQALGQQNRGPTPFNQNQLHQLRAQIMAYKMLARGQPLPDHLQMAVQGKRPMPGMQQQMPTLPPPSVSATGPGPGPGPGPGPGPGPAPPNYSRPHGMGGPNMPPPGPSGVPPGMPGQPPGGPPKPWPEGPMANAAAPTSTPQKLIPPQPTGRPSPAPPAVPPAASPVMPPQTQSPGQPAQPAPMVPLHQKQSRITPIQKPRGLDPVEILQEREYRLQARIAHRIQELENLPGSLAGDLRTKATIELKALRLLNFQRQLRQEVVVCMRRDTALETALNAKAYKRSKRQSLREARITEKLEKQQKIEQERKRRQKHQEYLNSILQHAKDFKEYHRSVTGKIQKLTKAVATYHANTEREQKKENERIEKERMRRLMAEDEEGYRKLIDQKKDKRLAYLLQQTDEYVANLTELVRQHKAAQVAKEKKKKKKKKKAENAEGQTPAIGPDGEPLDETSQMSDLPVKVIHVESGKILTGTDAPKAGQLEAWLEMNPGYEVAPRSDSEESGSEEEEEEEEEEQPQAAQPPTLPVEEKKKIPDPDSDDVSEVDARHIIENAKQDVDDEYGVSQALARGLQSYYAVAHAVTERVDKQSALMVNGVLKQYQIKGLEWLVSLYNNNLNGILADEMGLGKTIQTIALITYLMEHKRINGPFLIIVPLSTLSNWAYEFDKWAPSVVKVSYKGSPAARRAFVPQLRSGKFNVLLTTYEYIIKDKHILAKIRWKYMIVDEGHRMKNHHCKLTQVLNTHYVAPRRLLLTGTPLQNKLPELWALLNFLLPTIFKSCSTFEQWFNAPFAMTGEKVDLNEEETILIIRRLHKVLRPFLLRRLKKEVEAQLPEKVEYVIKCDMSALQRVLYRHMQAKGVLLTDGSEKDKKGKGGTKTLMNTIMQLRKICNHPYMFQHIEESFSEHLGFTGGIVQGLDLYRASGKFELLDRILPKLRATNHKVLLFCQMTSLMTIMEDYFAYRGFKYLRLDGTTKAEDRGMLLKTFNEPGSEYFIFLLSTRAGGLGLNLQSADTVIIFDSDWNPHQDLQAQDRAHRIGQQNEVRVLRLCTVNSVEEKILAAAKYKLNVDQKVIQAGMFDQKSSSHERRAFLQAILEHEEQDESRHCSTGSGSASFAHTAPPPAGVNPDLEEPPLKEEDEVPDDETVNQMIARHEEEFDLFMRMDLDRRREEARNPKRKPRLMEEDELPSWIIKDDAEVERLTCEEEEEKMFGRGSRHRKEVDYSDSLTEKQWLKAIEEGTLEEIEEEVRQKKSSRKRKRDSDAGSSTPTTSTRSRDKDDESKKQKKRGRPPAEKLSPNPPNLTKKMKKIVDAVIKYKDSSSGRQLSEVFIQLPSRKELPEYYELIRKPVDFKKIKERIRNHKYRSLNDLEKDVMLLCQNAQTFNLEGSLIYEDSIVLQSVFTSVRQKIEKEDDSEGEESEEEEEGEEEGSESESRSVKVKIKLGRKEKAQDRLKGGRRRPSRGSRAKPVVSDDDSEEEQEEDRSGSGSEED
# In short: (§1)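 HeLa cells engineered by CRISPR/Cas9 to carry a HiBiT tag fused to the C-terminus of SMARCA4 (Promega CS3023225) were grown in DMEM supplemented with FBS and penicillin-streptomycin. After compound exposure, remaining SMARCA4 protein was quantified using the Nano-Glo® HiBiT Lytic Detection Assay (Promega N3050), and curves were fitted in GraphPad Prism.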
# SMARCA2 = SMARCA2 (Homo sapiens, UniProt P51531); test: HiBiT assay for protein degradation, Hela SMARCA2-HiBiT cells (A series); assay type: cell-based; parameters: Hela cells were genetically modified via CRISPR/Cas9 to fuse HiBiT to the carboxy terminus of SMARCA2; host or cells: HeLa (CRISPR/Cas9 HiBiT knock-in)
# Sequence of SMARCA2 (P51531 whole entry): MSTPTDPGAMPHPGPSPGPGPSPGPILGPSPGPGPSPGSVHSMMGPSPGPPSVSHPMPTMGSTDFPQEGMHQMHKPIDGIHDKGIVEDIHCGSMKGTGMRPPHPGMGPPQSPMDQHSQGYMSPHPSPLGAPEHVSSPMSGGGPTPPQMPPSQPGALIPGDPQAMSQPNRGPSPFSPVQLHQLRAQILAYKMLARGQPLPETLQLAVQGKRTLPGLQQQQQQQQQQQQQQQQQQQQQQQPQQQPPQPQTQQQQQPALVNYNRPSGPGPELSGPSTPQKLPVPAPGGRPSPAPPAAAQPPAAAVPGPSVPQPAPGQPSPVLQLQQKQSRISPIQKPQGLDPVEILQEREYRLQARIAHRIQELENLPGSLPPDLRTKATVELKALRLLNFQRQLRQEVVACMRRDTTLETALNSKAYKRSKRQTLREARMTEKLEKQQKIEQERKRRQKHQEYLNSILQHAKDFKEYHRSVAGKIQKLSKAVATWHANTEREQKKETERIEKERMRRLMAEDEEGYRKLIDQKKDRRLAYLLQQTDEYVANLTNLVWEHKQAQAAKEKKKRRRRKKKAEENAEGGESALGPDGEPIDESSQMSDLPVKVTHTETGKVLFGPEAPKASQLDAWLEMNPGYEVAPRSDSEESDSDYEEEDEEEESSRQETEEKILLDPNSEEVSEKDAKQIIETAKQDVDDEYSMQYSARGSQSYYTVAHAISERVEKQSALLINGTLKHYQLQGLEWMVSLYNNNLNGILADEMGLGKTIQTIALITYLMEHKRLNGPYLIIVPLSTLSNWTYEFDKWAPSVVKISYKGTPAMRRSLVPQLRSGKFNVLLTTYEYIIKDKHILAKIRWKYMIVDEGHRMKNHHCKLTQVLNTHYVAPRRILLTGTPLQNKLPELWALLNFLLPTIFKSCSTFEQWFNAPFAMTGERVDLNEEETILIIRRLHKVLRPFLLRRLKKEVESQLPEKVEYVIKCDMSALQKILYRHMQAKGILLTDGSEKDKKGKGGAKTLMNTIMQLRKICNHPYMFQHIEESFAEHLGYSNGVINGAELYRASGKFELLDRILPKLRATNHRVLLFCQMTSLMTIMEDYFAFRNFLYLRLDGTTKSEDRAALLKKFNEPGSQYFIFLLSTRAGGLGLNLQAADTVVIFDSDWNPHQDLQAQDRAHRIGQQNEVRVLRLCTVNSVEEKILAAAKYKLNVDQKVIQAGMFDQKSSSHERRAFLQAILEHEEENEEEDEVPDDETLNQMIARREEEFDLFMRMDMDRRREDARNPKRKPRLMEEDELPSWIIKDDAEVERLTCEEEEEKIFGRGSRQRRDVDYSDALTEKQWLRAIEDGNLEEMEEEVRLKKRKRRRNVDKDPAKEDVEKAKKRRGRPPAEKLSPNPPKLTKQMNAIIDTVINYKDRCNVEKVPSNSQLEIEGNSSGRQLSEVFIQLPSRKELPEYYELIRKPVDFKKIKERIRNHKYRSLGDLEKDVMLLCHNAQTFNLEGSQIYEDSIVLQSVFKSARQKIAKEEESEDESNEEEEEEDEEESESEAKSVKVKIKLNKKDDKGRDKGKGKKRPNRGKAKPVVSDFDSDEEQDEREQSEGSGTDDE
# In short: as §1, with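 “SMARCA2” for “SMARCA4”, “CS302365)” for “CS3023225)”, “treatment,” for “compound exposure,”, “with” for “using”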
# [1] = Hela SMARCA4-HiBiT cells, 24 hours treatment
# [2] = Hela SMARCA4-HiBiT cells, 24 hours treatment, read-out: SMARC A4 Hela HiBit Dmax
# [3] = Hela SMARCA2-HiBiT cells, 24 hours treatment; read-out: SMARC A2 Hela HiBit DC50
# [4] = Hela SMARCA2-HiBiT cells, 24 hours treatment; read-out: SMARC A2 Hela HiBit Dmax (%)
# [5] = Hela SMARCA2-HiBiT cells, 24 hours treatment
# [6] = read-out: SMARC A2 Hela HiBit DC50
# [7] = Hela SMARCA4-HiBiT cells, 24 hours treatment, read-out: SMARC A4 Hela HiBit Dmax(%)
SMILES,DC50 (SMARCA4; [1]) [µM],Dmax (SMARCA4; [2]) [%],DC50 (SMARCA2; [3]) [µM],Dmax (SMARCA2; [4]) [%],further results
"Cc1ncsc1-c1ccc([C@H](CN2CCOCC2)NC(=O)[C@@H]2C[C@@H](O)CN2C(=O)[C@H](C2CCCCC2)n2cc([C@H]3CC[C@H](CN4CCC(c5ccc6c(c5)-n5c(nc(=O)c7c(Br)cccc75)C65CCCCC5)CC4)CC3)nn2)cc1 [Compound A123, (2S,4R)-1-((S)-2-(4-((1r,4S)-4-((4-(4′-bromo-5′-oxo-5′H-spiro[cyclohexane-1,7′-indolo[1,2-a]quinazolin]-10′-yl)piperidin-1-yl)methyl)cyclohexyl)-1H-1,2,3-triazol-1-yl)-2-cyclohexylacetyl)-4-hydroxy-N—((R)-1-(4-(4-methylthiazol-5-yl)phenyl)-2-morpholinoethyl)pyrrolidine-2-carboxamide]",0.01 to 0.1,70 to 90,< 0.01,> 90,
"Cc1ncsc1-c1ccc([C@@H](NC(=O)[C@@H]2C[C@@H](O)CN2C(=O)[C@@H](n2cc(C3CC3)nn2)C(C)(C)C)C(=O)N2CCC(c3ccc4c(c3)-n3c(nc(=O)c5c(Br)cccc53)C43CCCCC3)CC2)cc1 [Compound A135, (2S,4R)—N—((R)-2-(4-(4′-bromo-5′-oxo-5′H-spiro[cyclohexane-1,7′-indolo[1,2-a]quinazolin]-10′-yl)piperidin-1-yl)-1-(4-(4-methylthiazol-5-yl)phenyl)-2-oxoethyl)-1-((S)-2-(4-cyclopropyl-1H-1,2,3-triazol-1-yl)-3,3-dimethylbutanoyl)-4-hydroxypyrrolidine-2-carboxamide]",< 0.01,> 90,< 0.01,> 90,
"Cc1ncsc1-c1ccc([C@H](C)NC(=O)[C@@H]2C[C@@H](O)CN2C(=O)[C@@H](n2cc(C3(CN4CCC(c5ccc6c(c5)-n5c(nc(=O)c7c(Br)cccc75)C65CCCCC5)CC4)CC3)nn2)C(C)(C)C)cc1 [Compound A64, (2S,4R)-1-((S)-2-(4-(1-((4-(4′-bromo-5′-oxo-5′H-spiro[cyclohexane-1,7′-indolo[1,2-a]quinazolin]-10′-yl)piperidin-1-yl)methyl)cyclopropyl)-1H-1,2,3-triazol-1-yl)-3,3-dimethylbutanoyl)-4-hydroxy-N—((S)-1-(4-(4-methylthiazol-5-yl)phenyl)ethyl)pyrrolidine-2-carboxamide]",,,,,SMARC A4 Hela HiBit Dmax(%) (SMARCA4; [1]): B (B (70-90% degradation)); DC50 (SMARCA4): 0.1 to 0.5 µM; SMARC A2 Hela HiBit Dmax (%) (SMARCA2; [5]): A (A (>90% degradation)); DC50 (SMARCA2; [6]): < 0.1 µM
"Cc1ncsc1-c1ccc([C@H](C)NC(=O)[C@@H]2C[C@@H](O)CN2C(=O)[C@@H](NC(=O)[C@H]2CC[C@H](CN3CCC(c4ccc5c(n4)-n4c(nc(=O)c6c(Br)cccc64)C54CCCCC4)CC3)CC2)C(C)(C)C)cc1 [Compound A51, (2S,4R)-1-((S)-2-((1r,4S)-4-((4-(4′-bromo-5′-oxo-5′H-spiro[cyclohexane-1,7′-pyrido[3′,2′: 4,5]pyrrolo[1,2-a]quinazolin]-10′-yl)piperidin-1-yl)methyl)cyclohexane-1-carboxamido)-3,3-dimethylbutanoyl)-4-hydroxy-N—((S)-1-(4-(4-methylthiazol-5-yl)phenyl)ethyl)pyrrolidine-2-carboxamide]",,,,,"Dmax (SMARCA4; HeLa, read-out: SMARC A4 Hela HiBit Dmax(%)): < 50%; SMARC A4 Hela HiBit DC50(nM) (SMARCA4; [1]): No Fit; Dmax (SMARCA2; HeLa, read-out: SMARC A2 Hela HiBit Dmax (%)): 50 to 69%; DC50 (SMARCA2; read-out: SMARC A2 Hela HiBit DC50; Hela SMARCA2-HiBiT cells, 24 hours treatment): 0.501 to 1 µM"
"Cc1ncsc1-c1ccc([C@H](CCCCCN2CCC(c3ccc4c(c3)-n3c(nc(=O)c5c(Br)cccc53)C43CCCCC3)CC2)NC(=O)[C@H]2C[C@H](O)CN2C(=O)[C@@H](n2cc(C3CC3)nn2)C(C)(C)C)cc1 [Compound A36, (2R,4S)—N—((S)-6-(4-(4′-bromo-5′-oxo-5′H-spiro[cyclohexane-1,7′-indolo[1,2-a]quinazolin]-10′-yl)piperidin-1-yl)-1-(4-(4-methylthiazol-5-yl)phenyl)hexyl)-1-((S)-2-(4-cyclopropyl-1H-1,2,3-triazol-1-yl)-3,3-dimethylbutanoyl)-4-hydroxypyrrolidine-2-carboxamide]",< 0.1,,< 0.1,> 90,Dmax (SMARCA4; [7]): > 90%
"Cc1ncsc1-c1ccc([C@H](CN2CCOCC2)NC(=O)[C@@H]2C[C@@H](O)CN2C(=O)[C@H](C2CCCCC2)n2cc([C@H]3CC[C@H](CN4CCC(c5ccc6c(c5)-n5c(nc(=O)c7c(Cl)cccc75)C65CCCCC5)C4)CC3)nn2)cc1 (stereo partly drawn) [Compound A130, (2S,4R)-1-((2S)-2-(4-((1r,4S)-4-((3-(4′-chloro-5′-oxo-5′H-spiro[cyclohexane-1,7′-indolo[1,2-a]quinazolin]-10′-yl)pyrrolidin-1-yl)methyl)cyclohexyl)-1H-1,2,3-triazol-1-yl)-2-cyclohexylacetyl)-4-hydroxy-N—((R)-1-(4-(4-methylthiazol-5-yl)phenyl)-2-morpholinoethyl)pyrrolidine-2-carboxamide]",> 1,< 50,0.01 to 0.1,> 90,
"Cc1ncsc1-c1ccc([C@H](CN2CCOCC2)NC(=O)[C@@H]2C[C@@H](O)CN2C(=O)[C@@H](NC(=O)C23CCC(CN4CCC(c5ccc6c(c5)C5(CCCCC5)c5nc(=O)c7c(Br)cccc7n5-6)CC4)(CC2)C3)C(C)(C)C)cc1 [Compound A22, (2S,4R)-1-((S)-2-(4-((4-(4′-bromo-5′-oxo-5′H-spiro[cyclohexane-1,7′-indolo[1,2-a]quinazolin]-9′-yl)piperidin-1-yl)methyl)bicyclo[2.2.1]heptane-1-carboxamido)-3,3-dimethylbutanoyl)-4-hydroxy-N—((R)-1-(4-(4-methylthiazol-5-yl)phenyl)-2-morpholinoethyl)pyrrolidine-2-carboramide]",,,,,SMARC A4 Hela HiBit Dmax(%) (SMARCA4; [1]): A (A (>90% degradation)); DC50 (SMARCA4): < 0.1 µM; SMARC A2 Hela HiBit Dmax (%) (SMARCA2; [5]): A (A (>90% degradation)); DC50 (SMARCA2; [6]): < 0.1 µM
"O=C(O)c1ncsc1-c1ccc([C@H](CN2CCOCC2)NC(=O)[C@@H]2C[C@@H](O)CN2C(=O)[C@H](C2CCOCC2)n2cc([C@H]3CC[C@H](CN4CCC(c5ccc6c(c5)-n5c(nc(=O)c7c(Cl)cccc75)C65CCCCC5)CC4)CC3)nn2)cc1 [Compound A134, 5-(4-((R)-1-((2S,4R)-1-((S)-2-(4-((1r,4S)-4-((4-(4′-chloro-5′-oxo-5′H-spiro[cyclohexane-1,7′-indolo[1,2-a]quinazolin]-10′-yl)piperidin-1-yl)methyl)cyclohexyl)-1H-1,2,3-triazol-1-yl)-2-(tetrahydro-2H-pyran-4-yl)acetyl)-4-hydroxypyrrolidine-2-carboxamido)-2-morpholinoethyl)phenyl)thiazole-4-carboxylic acid]",> 1,< 50,0.1 to 1,70 to 90,
"Cc1ncsc1-c1ccc([C@H](CCCCCN2CCC(c3ccc4c(n3)-n3c(nc(=O)c5c(Br)cccc53)C43CCCCC3)CC2)NC(=O)[C@H]2C[C@H](O)CN2C(=O)[C@@H](n2cc(C3CC3)nn2)C(C)(C)C)cc1 [Compound A37, (2R,4S)—N—((S)-6-(4-(4′-bromo-5′-oxo-5′H-spiro[cyclohexane-1,7′-pyrido[3′,2′: 4,5]pyrrolo[1,2-a]quinazolin]-10′-yl)piperidin-1-yl)-1-(4-(4-methylthiazol-5-yl)phenyl)hexyl)-1-((S)-2-(4-cyclopropyl-1H-1,2,3-triazol-1-yl)-3,3-dimethylbutanoyl)-4-hydroxypyrrolidine-2-carboxamide]",< 0.1,,< 0.1,> 90,Dmax (SMARCA4; [7]): > 90%
